Measured values published in US8772250B2, “Compositions and methods for treating ischemia and ischemia-reperfusion injury” (Ischemix, LLC, priority 2010, dated 2014).
Values belong to the compound of their own block, whether it stands above or below them. Peptide text beside a SMILES is read from it.

Assays:
CHO M1-WT3 cells = assay: Cytosolic calcium overload assay, carbachol stimulated; format: cell-based, Chinese hamster; conditions: 200 nM carbachol, variant concentrations
Source text: Cytosolic calcium increases in the CHO M1-WT3 cells when stimulated with carbachol ([Molecular Devices, FlexStation Application Note 2, Comparison of FLIPR® and FLEXstation™ for Calcium Mobilization Assays]) and may be detected with a fluorescent dye that binds calcium. An increase in fluorescence following carbachol stimulation is interpreted as an increase in cytosolic calcium. Chinese hamster ovary (CHO) cells were allowed to adhere to the bottom of a 96-well culture plate. The fluorescent dye and a test sample were placed on the plate and allowed to be taken up by the cells. The fluorescence level was measured every two seconds using a plate reader (Flexstation II, Molecular Devices, Sunnyvale Calif.). The cells were stimulated with carbachol and fluorescent data reported as the peak increase in fluorescence above baseline following carbachol stimulation. Data were normalized to the peak carbachol response in the control sample.
CHO cells from the cell line CHO-M1-WT3 were grown in Hams F12 medium supplemented with 10% FBS and 5 μg/mL G418 to maintain expression of the M1 muscarinic receptor. Cells were seeded the night before the experiment at a concentration of 30,000 cells/well in a volume of 100 μL per well of black walled, clear bottomed, 96-well microplates (“assay plates”). Cells were incubated at 37° C. and 5% CO2 overnight. […] The cells were placed into the FlexStation system to monitor fluorescence before and after the addition of 50 μL of 1 μM carbachol for a final concentration of 200 nM. Fluorescence was measured for 17 seconds prior to carbachol addition and 43 seconds following carbachol addition. The Fluo-4 dye was excited at a wavelength of 485 nm and emission measured at 525 nm. The Calcium-3 dye was excited at a wavelength of 494 nm and emission measured at 525 nm. The calcium response was reported as the peak fluorescence minus the baseline fluorescence calculated as the average of the fluorescence prior to carbachol addition.

[1] = tested on: myocardial ischemia-reperfusion injury; assay: Rat model of myocardial I/R injury (MI/AR ratio); format: in vivo; conditions: rat model of myocardial I/R injury; data not shown
Source text: A rat model of myocardial I/R injury was used as an in vivo screen to determine if certain lipoic acid derivative compounds are cardio-protective (e.g., against mycoardial ischemia-reperfusion injury). This model is analogous to the ischemia-reperfusion injury observed in cardiac patients following coronary occlusions and cardiac surgery procedures, such as coronary artery bypass grafting (CABG) (Matsui, T., Tao, J., del Monte, F., Lee, K.-H. et al., Akt Activation Preserves Cardiac Function and Prevents Injury After Transient Cardiac Ischemia In vivo, Circulation 2001, 104:330).
The circumflex branch of the left coronary artery was ligated temporarily to induce regional ischemia in the left ventricular mass, followed by the injection of fluorescent microspheres to delineate the ischemic region. The animals were sacrificed about 24 hours after reperfusion and the hearts were excised, sectioned and stained with triphenyltetrazolium. The direct impact of the pharmacologic intervention was determined by measuring the myocardial infarct area (MI), the ischemic area at risk (AR) and the left ventricular area (LV). The reduction of MI over the AR (MI/AR ratio) was used as the primary measure of drug efficacy relative to vehicle controls.
Male Sprague-Dawley rats between 300 and 350 gm were used for these experiments. Anesthesia was induced with 3-4% isoflurane in an induction chamber. After induction, anesthesia was maintained at a surgical plane with 1.5-2.0% isoflurane, administered by a Rodent Ventilator through a 16-gauge angiocatheter introduced orally into the trachea. The ventilator was set at 2.5 cc at a rate of 60-65 breaths per minute to maintain ventilation during surgery. The core temperature of the animal was monitored and maintained at 37° C. using a rectal probe and a heating lamp attached to a temperature controller.
A left anterior thoracotomy was performed and the heart was exposed using a vertical pericardotomy. The circumflex branch of the left coronary artery (LCx) was ligated approximately 4 mm from the aorta using a cardiovascular 7.0 monofilament suture on an 11 mm needle to induce ischemia in the left ventricle.
Fluorescent microspheres (300 μL) were injected into the left ventricular cavity 10-20 minutes after the ligation to delineate the ischemic area. The suture was removed 30 minutes after ligation to reperfuse the ischemic area and the ischemic area was checked for reperfusion.
The chest was then closed in layers using absorbable suture (Dexon 5-0) for the muscle layers and monofilament Nylon 5-0 suture was used to close the cutaneous layer. The animals were allowed to recover, then were returned to the colony.
Twenty-four hours after reperfusion, anesthesia was induced using ketamine hydrochloride and the chest was opened. The animals were sacrificed with 15% potassium chloride aqueous solution (w/v) injected into the LV cavity to arrest the heart in diastole. The heart was excised distal to the aortic valve and washed with saline to remove the blood. Sagittal slices of the heart were obtained between the base of the ventricle and the apex. Five slices of heart tissue were obtained, each 2 mm thick. The slices were immersed in a 1% 2,3,5-triphenyl-2H-tetrazolium chloride (TTC) in saline solution and then stored in the dark for 30 minutes to stain.
Images of the slices were obtained under bright field (to observe the TTC staining) and under fluorescence (to observe the microspheres). The area at risk was determined by the absence of microspheres and the infarct area was determined by the absence of TTC staining.
In vivo experiments employing a rat model of myocardial I/R injury were performed as described in Example 8. Catheterized (jugular vein) rats were used for intravenous dose administration at time points prior to and/or including 0.25 h.

[2] = Oxygen Radical Absorbance Capacity (ORAC) assay
Source text: Peroxyl radicals are one species of reactive oxygen produced by cells during reperfusion. The presence of peroxyl radicals can be detected by fluorescein oxidation. In the presence of peroxyl radicals, fluorescein fluorescence will decay over time. In the presence of an oxygen radical scavenger, the rate of decay is diminished. The change in the rate of decay between control and in the presence of scavengers is used to measure the peroxyl radical scavenging ability of a test compound.
Each compound tested was diluted to a concentration ranging from 25 μM to 250 μM in 10 mM phosphate buffer (pH=7.4) containing 10 nM fluorescein. The buffer and compound were incubated at 37° C. for 10 minutes. After the incubation, flourescein fluorescence was measured using a plate reader (Molecular Devices Flexstation II, Ex=485, Em=520). Baseline fluorescence measurements were recorded for 15 minutes before 2,2′-azobis(2-methylpropionamidine) dihydrochloride (AAPH) was added. The fluorescence decay was recorded for 90 minutes. The fluorescence decay without compound was subtracted from the fluorescence decay with compound. The slope of the decay vs. concentration is reported as the absorbance capacity.

Akt [3] = assay: Cytoblot assay for Akt activation in A549 cells; format: cell-based, human
Experimental: The ability of RLip-EA-OH to increase phosphorylated Akt was assayed using an in-cell western blot, or cytoblot. A549 cells (human non-small cell lung cancer cell line) were selected because these cells can be manipulated to increase or decrease the level of phosphoryated Akt. The cells were inoculated onto culture plates and allowed to adhere to the bottom, then treated, fixed, and permeabilized. Following permeabilization, the cells were treated with antibodies specific for either phospho-Akt or total Akt. The cells were then treated with fluorescent secondary antibodies to quantify the amount of bound primary antibody. Total Akt and phospho-Akt were simultaneously detected.
A549 cells were plated in 384 well black-wall, clear-bottom, cell culture-treated microtiter plates at 70% confluence. Cells were incubated overnight to allow cell attachment. The media was changed to low serum (0.1%, fetal bovine serum [FBS]) and the cells were incubated for another 24 hours. Cells were treated with test compounds, fixed and permeabilized for the Akt assay. The fixative was 3.7% formaldehyde in phosphate buffered saline. The permeabilization buffer was 0.5% Triton X-100 in phosphate buffered saline. After permeabilization of cells, the amounts of total Akt and phosphorylated Akt at either of the two phosphorylation sites (threonine-308 and serine-473) were determined at 7 test concentrations, each performed in quadruplicate. The phospho-Akt data were normalized to total Akt and background subtracted for analysis.
Following overnight serum starvation to reduce basal Akt phosphorylation, cells were stimulated with vehicle, RLip-EA-OH, or RLip-OH. Cells were treated for 45 minutes or 3 hours and studied for phosphorylation at serine-473 or threonine 308, respectively.

Akt [4] = assay: Immunohistochemistry assay for phosphorylated Akt in H9c2 cells; format: cell-based, rat; conditions: co-treatment with LY294002 (25 μM), 30 minutes prior to RLip-EA-OH
Experimental: The ability of RLip-EA-OH to increase phosphorylated Akt was assayed in H9c2 cells by immunocytochemistry followed by visualization using microscopy. H9c2 cells are a cell line derived from rat cardiac myocytes and can be manipulated to increase or decrease the level of phosphoryated Akt. Cells were inoculated onto culture plates and allowed to adhere to the bottom, treated, fixed, and permeabilized. Following permeabilization, cells were treated initially with specific phospho-Akt antibodies followed by fluorescent secondary antibodies to quantify the amount of bound primary antibody.
H9c2 cells were plated in 12 well cell culture treated plates at 70% confluence. Cells were incubated overnight to allow cell attachment. The media was changed to low serum (0.5%, fetal bovine serum [FBS]) and cells incubated for another 48 hours. Cells were treated for 3 hours with either vehicle, RLip-EA-OH (50 μM), or co-treatment with LY294002 (25 μM), fixed with 3.7% formaldehyde in phosphate buffered saline and permeabilized with 0.5% Triton X-100 in phosphate buffered saline. After permeabilization, the cells were treated with antibody specific for Akt phosphorylated at threonine-308, followed by treatment with a fluorescent labeled secondary antibody.

Src = Src (Homo sapiens, UniProt P12931); assay: Src tyrosine kinase activation assay (mobility shift); format: biochemical
Source text: (§1) IGF1R and Src tyrosine kinases have endogenous levels of activity in the presence of ATP and substrate. This activity was readily measured using a mobility shift assay using a Caliper LabChip® 3000 and a 12-sipper LabChip® to detect both phosphorylated and unphosphorylated substrate (Caliper Life Sciences, Discovery Alliances and Services Division). Enzyme, substrate and ATP concentrations were optimized for each assay. For the IGF1R assay, the final concentrations of the enzyme, peptide and ATP were 20 nM, 1.5 μM, and 1220 μM, respectively. For the Src assay, the final concentrations of the enzyme, peptide and ATP were 2.5 nM, 1.5 μM, and 17 μM, respectively.
(§2) RLip-EA-OH was evaluated at multiple concentrations for an effect on activation of IGF1 receptor kinase (IGF1R) and Src. The compounds tested activated IGF1R and Src with different selectivities.

insulin receptor kinase = molecular target: T1, insulin receptor kinase (Homo sapiens, UniProt P06213); assay: IRK activation assay (mobility shift kinase assay); format: biochemical
T1 construct: insulin receptor kinase domain (Millipore catalog #14-466, 80 nM); purchased Millipore 14-466
Source text: Insulin receptor kinase activity was readily measured by a mobility shift assay using a Caliper LabChip® 3000 and a 12-sipper LabChip® to detect both phosphorylated and unphosphorylated substrate (Caliper Life Sciences, Discovery Alliances and Services Division, Hanover, Md.). The mobility-shift kinase assay uses a micro fluidic chip to measure the conversion of a fluorescent peptide substrate to a phosphorylated product. The reaction mixture from a microtiter plate well was introduced through a capillary sipper onto the chip and the nonphosphorylated substrate and phosphorylated product were separated by electrophoresis and detected via laser-induced fluorescence. […] The catalytic subunits of tyrosine kinases have endogenous levels of activity in the presence of ATP and substrate, thus the results are presented as a % of control.
Specifically, each test compound was diluted to 25 times its assay concentration with 100% DMSO and added to 12 μL of an assay buffer solution (100 mM HEPES, 10 mM MnCl2, 5 mM B-GP, and 0.002% Brij) containing dithiotheritol (DTT, 2 mM) and insulin receptor kinase domain (Millipore catalog #14-466, 80 nM) prior to pre-incubation at room temperature for 15 minutes. […] The samples were placed on the LabChip 3000 to measure the amount of parent substrate and phosphorylated product. […]

IGF1R = IGF1R (Homo sapiens, UniProt P08069); assay: IGF1R tyrosine kinase activation assay (mobility shift); format: biochemical
Source text: as §1, §2

[5] = tested on: myocardial ischemia-reperfusion injury; assay: Rat model of myocardial I/R injury (MI/AR ratio); format: in vivo; conditions: rat

Chain of IGF1R (P08069 959-1367 limits assumed, species assumed): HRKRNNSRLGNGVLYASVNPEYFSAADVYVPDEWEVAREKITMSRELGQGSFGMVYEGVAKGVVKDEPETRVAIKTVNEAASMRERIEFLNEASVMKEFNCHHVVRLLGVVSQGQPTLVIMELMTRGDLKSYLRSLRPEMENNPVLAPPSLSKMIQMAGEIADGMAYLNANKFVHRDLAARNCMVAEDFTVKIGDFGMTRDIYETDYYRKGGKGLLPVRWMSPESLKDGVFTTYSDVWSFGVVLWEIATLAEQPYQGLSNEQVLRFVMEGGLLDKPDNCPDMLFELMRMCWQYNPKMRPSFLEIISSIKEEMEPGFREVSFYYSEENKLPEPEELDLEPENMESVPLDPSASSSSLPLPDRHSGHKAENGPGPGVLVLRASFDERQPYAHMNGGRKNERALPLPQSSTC
Chain of Src (P12931 whole entry, species assumed): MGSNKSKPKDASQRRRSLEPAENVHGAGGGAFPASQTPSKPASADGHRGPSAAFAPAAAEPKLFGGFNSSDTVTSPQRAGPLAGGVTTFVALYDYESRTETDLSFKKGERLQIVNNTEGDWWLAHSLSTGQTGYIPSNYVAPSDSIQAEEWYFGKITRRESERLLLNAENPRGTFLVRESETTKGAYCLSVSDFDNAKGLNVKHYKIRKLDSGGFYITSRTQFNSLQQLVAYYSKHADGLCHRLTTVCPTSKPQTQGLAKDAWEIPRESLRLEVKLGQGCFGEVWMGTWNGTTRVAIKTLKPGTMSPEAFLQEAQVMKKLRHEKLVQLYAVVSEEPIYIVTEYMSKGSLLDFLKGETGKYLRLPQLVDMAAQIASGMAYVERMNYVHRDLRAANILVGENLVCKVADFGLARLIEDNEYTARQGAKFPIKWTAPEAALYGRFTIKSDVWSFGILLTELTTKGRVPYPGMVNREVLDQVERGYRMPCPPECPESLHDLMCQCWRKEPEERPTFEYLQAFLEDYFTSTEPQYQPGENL
T1 sequence (P06213 1023-1298 limits assumed): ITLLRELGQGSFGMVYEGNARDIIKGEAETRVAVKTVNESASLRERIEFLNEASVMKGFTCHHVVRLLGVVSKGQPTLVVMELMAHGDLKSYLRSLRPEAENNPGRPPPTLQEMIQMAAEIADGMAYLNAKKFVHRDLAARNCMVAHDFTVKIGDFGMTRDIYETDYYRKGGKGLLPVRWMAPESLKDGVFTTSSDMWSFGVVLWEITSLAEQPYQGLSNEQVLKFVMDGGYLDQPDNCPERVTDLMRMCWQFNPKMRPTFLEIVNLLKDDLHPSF

Compound: CC(=O)N[C@@H](CCC(=O)O)C(=O)N[C@@H](C)C(=O)O [Ac-EA-OH, N-acetyl-L-glutamyl-L- alanine, reference compound] (Ac-Glu-Ala-OH)
- effect on carbachol stimulated flux in cytosolic calcium (CHO M1-WT3 cells): minimal effect
- efficacy compared to vehicle [1]: statistically similar to vehicle
- peroxyl radical absorption capability ([2]; ORAC assay): no appreciable peroxyl radical absorption capability
- ORAC Value relative to RLip-OH ([2]; mean of 3-4 experiments): 8 ± 5

Compound: O=c1cc(N2CCOCC2)oc2c(-c3ccccc3)cccc12 [LY294002, 2-(4-morpholinyl)-8-phenyl-4H-1-benzopyran-4-one, reference compound]
- effect on RLip-EA-OH-increased phosphorylation of Akt (Akt [3]; cotreatment with 5 μM LY294002, 3 hours): completely inhibited
- effect on fluorescence intensity from Akt phosphorylation induced by RLip-EA-OH (Akt [4]): diminished the fluorescence intensity

- Src % Increase in activity above vehicle control (Src; 300 μM): 15 ± 1%
- IRK % Increase in activity above vehicle control (insulin receptor kinase; 300 μM): 48 ± 1%
- IGF1R % Increase in activity above vehicle control (IGF1R; 300 μM): 37 ± 4%
Compound: O=C(O)CCCC[C@@H]1CCSS1 [RLip-OH, (R)-lipoic acid, reference compound]
- effect on carbachol stimulated flux in cytosolic calcium (CHO M1-WT3 cells): minimal effect
- increase in phosphorylated Akt at serine 473 (Akt [3]; 45 minutes of treatment): 2 fold
- amount of phosphorylated Akt relative to total Akt (Akt [3]; variant concentrations): increased the amount of phosphorylated Akt relative to total Akt in a dose dependent manner
- Reduction of MI:AR Ratio Relative to Vehicle (%) ([5]; 2 mg/kg IC, Table 7 meta analysis): 19 ± 7 %
- ORAC Value relative to RLip-OH ([2]; mean of 3-4 experiments): 100 ± 6

- Src % activity above control (±SEM) (Src; 100 μM): 19 ± 1%
- AVG % activity above control (±SEM) (insulin receptor kinase; 100 μM): 4 ± 12%
- IGF1R % activity above control (±SEM) (IGF1R; 100 μM): −4 ± 10%
Compound: C[C@H](NC(=O)[C@H](CCC(=O)O)NC(=O)CCCC[C@H]1CCSS1)C(=O)O [SLip-EA-OH, N-(S)-lipoyl-L-glutamyl-L- alanine]
- MI/AR ([5]; 1 mg/kg single bolus IC 15 minutes prior to ischemia): 0.401
- MI/AR ([5]; 2 mg/kg single bolus IC 15 minutes prior to ischemia): 0.400
- ORAC Value relative to RLip-EA-OH ([2]; mean of 3-4 experiments): 89 ± 4
